Reference: ChEMBL document CHEMBL1147140, “Strongylophorine-26, an inhibitor of cancer cell Invasion: SAR revealed by synthesis of analogues” (J Nat Prod, 2007)
Values after ≈ are worked out from the molar mass of the structure shown. Active and inactive are the calls of the source. The calls are words filed in the database; no cut-off is given here.

What was measured:
MDA-MB-231 [1] = assay: Cytotoxicity against human MDA-MB-231 cells; assay type: cell-based
MDA-MB-231 [2] = assay: Anti-invasive activity against human MDA-MB-231 cells at <= 0.3 ug/ml; assay type: functional, cell-based

| Structure (SMILES) | Activity (MDA-MB-231 [2]) | other results |
| --- | --- | --- |
| COC1=CC(=O)C=C(C[C@H]2[C@]3(C)CC[C@H]4C(C)(C)CCC[C@]4(C)[C@H]3CC[C@]2(C)O)C1=O (stereo in doubt; (+)-3) [listing 1 of 2 here] | – | IC50 (MDA-MB-231 [1]; mda-mb-231): 0.3 µg/mL (≈ 0.7 µM) |
| COC1=CC(=O)C=C(C[C@H]2[C@]3(C)CC[C@H]4C(C)(C)CCC[C@]4(C)[C@H]3CC[C@]2(C)O)C1=O (stereo in doubt; (+)-3) [listing 2 of 2 here] | inactive | – |
| COC1=CC(=O)C=C(C[C@H]2[C@]3(C)CC[C@H]4C(C)(C)CCC[C@]4(C)[C@H]3CC[C@]2(C)O)C1=O (stereo in doubt; (-)-3) [listing 1 of 2 here] | – | IC50 (MDA-MB-231 [1]; Homo sapiens, MDA-MB-231, read-out: IC50): 0.3 µg/mL (≈ 0.7 µM) |
| COC1=CC(=O)C=C(C[C@H]2[C@]3(C)CC[C@H]4C(C)(C)CCC[C@]4(C)[C@H]3CC[C@]2(C)O)C1=O (stereo in doubt; (-)-3) [listing 2 of 2 here] | inactive | – |
